{"source": "patent US20090192142A1", "about": "“USE OF CARBAMAZEPINE DERIVATIVES FOR THE TREATMENT OF AGITATION IN DEMENTIA PATIENTS” (priority 2004, published 2009)", "system": "community-dwelling elderly patients diagnosed with Alzheimer's disease (behavioral agitation)", "assay": "8-week, open-label, single-arm study of oxcarbazepine for behavioral agitation in Alzheimer's disease patients", "format": "in vivo, human", "settings": "for change from baseline in Cohen-Mansfield Agitation Inventory (CMAI) score (mean±SD): baseline 60.6±14.7, mean oxcarbazepine daily dose 340 mg/day (range 150-552 mg/day), p≦0.0002", "procedure": "In an 8-week, open-label, single-arm study are recruited twenty-six patients community-dwelling elderly patients (>63 years of age) diagnosed with Alzheimer's disease. After a 1-week screening period to assess each patient's agitation level, oxcarbazepine 150 mg/day treatment is initiated and titrated by 150 mg/day every 3-7 days to a maximum of 1200 mg/day with a mean oxcarbazepine daily dose of 340 mg/day (range 150-552 mg/day). The primary outcome measure is improvement in behavioral agitation, based on the 38-item Cohen-Mansfield Agitation Inventory (CMAI) that evaluates the prevalence of pathologic and disruptive agitated behavior. Secondary evaluations include effects on neuropsychiatric symptoms, cognitive impairment, global functioning, and tolerability.\nSignificant reductions in CMAI score from baseline (mean±SD: 60.6±14.7) occur at each time point (mean±SD change from baseline on Day 14: −16.9±19.7, Day 28: −22.6±19.0, Day 56: −20.8±19.6; all p≦0.0002). […] Cognitive performance and global functioning remain stable throughout the study.", "key": {"[1]": {"settings": "patients with Alzheimer's disease, open-label prospective study"}}}
{"compound": "NC(=O)N1c2ccccc2CC(=O)c2ccccc21", "note": "[oxcarbazepine, 10-oxo-10,II-dihydro-5H-dibenz(b,f)azepine-5-carboxamide]", "values": [{"measurement": "change from baseline in Cohen-Mansfield Agitation Inventory (CMAI) score (mean±SD)", "setting": "Day 14", "value": "−16.9±19.7"}, {"measurement": "change from baseline in Cohen-Mansfield Agitation Inventory (CMAI) score (mean±SD)", "setting": "Day 28", "value": "−22.6±19.0"}, {"measurement": "change from baseline in Cohen-Mansfield Agitation Inventory (CMAI) score (mean±SD)", "setting": "Day 56", "value": "−20.8±19.6"}, {"measurement": "mean Neuropsychiatric Inventory score", "setting": "each time point, all p≦0.02 versus screening", "value": "Significant improvement"}, {"measurement": "efficacy in the treatment of agitation", "setting": "[1]", "value": "effective"}, {"measurement": "tolerability", "setting": "[1]", "value": "generally well tolerated"}, {"measurement": "cognitive performance", "setting": "throughout the 8-week study", "value": "remain stable"}, {"measurement": "global functioning", "setting": "throughout the 8-week study", "value": "remain stable"}]}
